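Exposure lasted 48 hours, with cells grown in 96-well plates and compounds tested at five concentrations. GI50 = concentration required for 50% inhibition of growth.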 Activity calls are given as the source filed them. Rule as the data show it: active = GI50 up to about 1.1 µM and inactive = higher.
Key:
Assay in all cases: inhibition of tumour cell growth, NCI panel, 48 h
786-0 = test system: 786-0
A549 = test system: A549
ACHN = test system: ACHN
BT-549 = test system: BT-549
CCRF-CEM = test system: CCRF-CEM
COLO 205 = test system: COLO 205
DU-145 = test system: DU-145
EKVX = test system: EKVX
HCC 2998 = test system: HCC 2998
HCT-116 = test system: HCT-116
HCT-15 = test system: HCT-15
HL-60 = test system: HL-60
HOP-62 = test system: HOP-62
HOP-92 = test system: HOP-92
HT-29 = test system: HT-29
Hs-578T = test system: Hs-578T
IGROV-1 = test system: IGROV-1
K562 = test system: K562
KM12 = test system: KM12
LOX IMVI = test system: LOX IMVI
M14 = test system: M14
MCF7 = test system: MCF7
MDA-MB-231 = test system: MDA-MB-231
MDA-MB-435 = test system: MDA-MB-435
MDA-N = test system: MDA-N
MOLT-4 = test system: MOLT-4
Malme-3M = test system: Malme-3M
NCI-H226 = test system: NCI-H226
NCI-H23 = test system: NCI-H23
NCI-H460 = test system: NCI-H460
NCI-H522 = test system: NCI-H522
NCI/ADR-RES = test system: NCI/ADR-RES
OVCAR-3 = test system: OVCAR-3
OVCAR-4 = test system: OVCAR-4
OVCAR-5 = test system: OVCAR-5
OVCAR-8 = test system: OVCAR-8
PC-3 = test system: PC-3
RPMI-8226 = test system: RPMI-8226
RXF 393 = test system: RXF 393
SF-268 = test system: SF-268
SF-295 = test system: SF-295
SF-539 = test system: SF-539
SK-MEL-2 = test system: SK-MEL-2
SK-MEL-5 = test system: SK-MEL-5
SK-OV-3 = test system: SK-OV-3
SN12C = test system: SN12C
SNB-19 = test system: SNB-19
SNB-75 = test system: SNB-75
SR = test system: SR
SW-620 = test system: SW-620
T47D = test system: T47D
TK-10 = test system: TK-10
U-251 = test system: U-251
UACC-257 = test system: UACC-257
UACC-62 = test system: UACC-62
UO-31 = test system: UO-31

## CC(=O)O[C@H]1C(=O)[C@@]2(C)[C@H]([C@H](OC(=O)C3CCCCC3)[C@]3(O)C[C@H](OC(=O)[C@H](O)[C@@H](NC(=O)OC(C)(C)C)c4ccccc4)C(C)=C1C3(C)C)[C@]1(OC(C)=O)CO[C@@H]1C[C@@H]2O
786-0
  GI50: 17.6 nM (active)
A549
  GI50: 19.4 nM (active)
ACHN
  GI50: 413 nM (active)
BT-549
  GI50: 13.4 nM (active)
CCRF-CEM
  GI50: 4.99 nM (active)
COLO 205
  GI50: 13 nM (active)
DU-145
  GI50: 86.7 nM (active)
EKVX
  GI50: > 12500 nM (inactive)
HCC 2998
  GI50: 29.9 nM (active)
HCT-116
  GI50: 3.78 nM (active)
HCT-15
  GI50: 268 nM
HL-60
  GI50: 1.25 nM (active)
HOP-62
  GI50: 18.1 nM (active)
HOP-92
  GI50: 14.8 nM (active)
HT-29
  GI50: 3.35 nM (active)
Hs-578T
  GI50: 5.48 nM (active)
IGROV-1
  GI50: 3.48 nM (active)
K562
  GI50: 2.75 nM (active)
KM12
  GI50: 7.31 nM (active)
LOX IMVI
  GI50: 8.17 nM (active)
M14
  GI50: 7.24 nM (active)
MCF7
  GI50: 2.59 nM (active)
MDA-MB-231
  GI50: 42.7 nM (active)
MDA-MB-435
  GI50: 2.26 nM (active)
MDA-N
  GI50: 1.69 nM (active)
MOLT-4
  GI50: 4.74 nM (active)
Malme-3M
  GI50: 177 nM (active)
NCI-H226
  GI50: 23.6 nM (active)
NCI-H23
  GI50: 26.1 nM (active)
NCI-H460
  GI50: 7.62 nM (active)
NCI-H522
  GI50: 9.18 nM (active)
NCI/ADR-RES
  GI50: > 3030 nM (inactive)
OVCAR-3
  GI50: 1.25 nM (active)
OVCAR-4
  GI50: 10200 nM (inactive)
OVCAR-5
  GI50: 7.4 nM (active)
OVCAR-8
  GI50: 14.4 nM (active)
PC-3
  GI50: 16.8 nM (active)
RPMI-8226
  GI50: 4.57 nM (active)
RXF 393
  GI50: 33.1 nM (active)
SF-268
  GI50: 202 nM (active)
SF-295
  GI50: 27 nM (active)
SF-539
  GI50: 2.98 nM (active)
SK-MEL-2
  GI50: 80.3 nM (active)
SK-MEL-5
  GI50: 10.7 nM (active)
SK-OV-3
  GI50: 15.1 nM (active)
SN12C
  GI50: 38.5 nM (active)
SNB-19
  GI50: 32.6 nM (active)
SNB-75
  GI50: 402 nM (active)
SR
  GI50: 5.42 nM (active)
SW-620
  GI50: 6.34 nM (active)
T47D
  GI50: 67.8 nM (active)
TK-10
  GI50: 151 nM (active)
U-251
  GI50: 13.7 nM (active)
UACC-257
  GI50: 25.2 nM (active)
UACC-62
  GI50: 12.9 nM (active)
UO-31
  GI50: 849 nM (active)
